Active and inactive are the calls of the source.
Tests used:
Troponin, cardiac muscle = Troponin, cardiac muscle (Homo sapiens, UniProt P19429+P45379+P63316); assay: Fluorescence-based biochemical high throughput dose response assay for activators of the calcium sensitivity of cardiac Regulated Thin Filaments (RTF). [Related pubchem assays (depositor defined):AID493008, AID493018, AID504382, AID504383]; format: protein-complex assay
[1] = target: T1, Sentrin-specific protease 1 (Homo sapiens, UniProt Q9P0U3); assay: SENP1 catalytic domain blockers, concentration series – biochemical, kinetic FRET, dose response (AID 651697); format: functional; settings: read-out: IC50_Mean
[2] = target: T1, Sentrin-specific protease 1; assay: Dose response confirmation of small molecule inhibitors of the catalytic domain of the SUMO protease, SENP1 in a FRET assay.; format: functional; settings: read-out: IC50_Mean
[3] = target: T2, DNA repair protein RAD52 homolog (Homo sapiens, UniProt P43351); format: functional, biochemical
T2 sequence (P43351 whole entry): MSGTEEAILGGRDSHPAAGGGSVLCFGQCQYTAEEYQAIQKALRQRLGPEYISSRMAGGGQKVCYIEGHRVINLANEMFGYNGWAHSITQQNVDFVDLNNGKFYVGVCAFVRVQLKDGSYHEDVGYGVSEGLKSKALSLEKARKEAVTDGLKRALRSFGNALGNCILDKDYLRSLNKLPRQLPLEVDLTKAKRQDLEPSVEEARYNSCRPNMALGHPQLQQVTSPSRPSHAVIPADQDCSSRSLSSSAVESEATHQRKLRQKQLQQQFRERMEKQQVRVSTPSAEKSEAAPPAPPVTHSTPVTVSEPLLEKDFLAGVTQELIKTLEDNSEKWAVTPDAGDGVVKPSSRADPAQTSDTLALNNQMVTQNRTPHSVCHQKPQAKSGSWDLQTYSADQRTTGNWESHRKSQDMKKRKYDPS

[4] = target: T3, DNA repair and recombination protein RAD54-like (Homo sapiens, UniProt Q92698); assay: RAD54 Holliday junction migration blockers – biochemical, fluorescence, cherry-picked samples, dose series, confirmation (AID 651657); format: functional
T3 sequence (Q92698 whole entry): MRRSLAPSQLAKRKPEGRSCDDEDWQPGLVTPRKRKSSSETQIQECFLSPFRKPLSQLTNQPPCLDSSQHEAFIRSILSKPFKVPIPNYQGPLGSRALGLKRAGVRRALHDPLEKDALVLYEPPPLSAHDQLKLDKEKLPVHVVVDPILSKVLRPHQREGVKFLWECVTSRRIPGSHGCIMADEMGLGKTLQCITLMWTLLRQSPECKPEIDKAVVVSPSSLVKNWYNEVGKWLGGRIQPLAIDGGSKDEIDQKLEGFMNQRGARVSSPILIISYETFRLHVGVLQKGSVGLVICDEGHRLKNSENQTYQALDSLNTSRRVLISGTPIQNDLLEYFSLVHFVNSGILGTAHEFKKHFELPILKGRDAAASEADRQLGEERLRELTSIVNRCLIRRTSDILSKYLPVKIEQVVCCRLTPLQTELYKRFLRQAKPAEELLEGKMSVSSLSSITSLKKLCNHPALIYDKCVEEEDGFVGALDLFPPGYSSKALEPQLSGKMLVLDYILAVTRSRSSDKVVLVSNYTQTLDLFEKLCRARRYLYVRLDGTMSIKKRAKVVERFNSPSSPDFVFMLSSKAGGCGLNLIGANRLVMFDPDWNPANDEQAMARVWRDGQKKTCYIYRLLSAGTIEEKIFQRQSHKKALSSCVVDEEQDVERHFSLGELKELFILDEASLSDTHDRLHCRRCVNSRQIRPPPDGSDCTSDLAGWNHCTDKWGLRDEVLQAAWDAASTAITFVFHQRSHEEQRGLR

[5] = cytotoxicity toward MDA-MB-231 breast cancer cells – cell-based, CellTiter-Glo luminescence, cherry-pick, cytotoxicity control for RAD54 inhibitor project, dose response (AID 651692); format: functional
[6] = target: T4, Sentrin-specific protease 8 (Homo sapiens, UniProt Q96LD8); format: functional
T4 sequence (Q96LD8 whole entry): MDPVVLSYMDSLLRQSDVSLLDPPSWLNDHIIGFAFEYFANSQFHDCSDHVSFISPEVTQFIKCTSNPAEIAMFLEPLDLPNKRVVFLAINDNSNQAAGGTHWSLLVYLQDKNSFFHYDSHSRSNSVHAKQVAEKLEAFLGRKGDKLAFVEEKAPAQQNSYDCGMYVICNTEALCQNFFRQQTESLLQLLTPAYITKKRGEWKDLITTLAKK

[7] = target: T4, Sentrin-specific protease 8; format: functional; remark: listed apart in the source
[8] = general mammalian cell viability loss – inhibitor set, cherry-pick, set 2, cytotoxicity control for miR-122 modulator project, dose response (AID 720697); format: functional, cell-based
[9] = Fluorescence-based cell-based high throughput dose response assay for inhibitors of the interaction of nucleotide-binding oligomerization domain containing 2 (NOD2) and the receptor-interacting serine-threonine kinase 2 (RIPK2).; format: functional; settings: Homo sapiens
[10] = activation of miR-122 Renilla sensor silencing – cell-based, Huh7 psiCHECK-miR122, Renilla luciferase, cherry-picked, dose response (AID 651956); format: functional;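 note: huh7 hepatoma cells stably carrying a psiCHECK-2 miR-122 sensor plasmid; renilla luciferase signal reporting endogenous miR-122 activity after 48 h compound exposure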
[11] = target: G-protein coupled receptor 55 (Homo sapiens, UniProt Q9Y2T6); assay: inhibition of LPI-stimulated GPR55 beta-arrestin translocation – imaging, U2OS, beta-arrestin-GFP, LPI agonist, primary screen (AID 2013); format: functional;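 note: antagonist potency measured as reduced agonist-driven arrestin aggregation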
[12] = A549 cell cytotoxicity, dose response, cytotoxicity control, plate reader, cherry-pick, antagonist series (AID 743412); format: functional, cell-based
[13] = Trypanosoma cruzi growth suppression in host cells – NIH3T3 host cells, beta-gal luminescence, confirmation (AID 2044); format: functional, cell-based;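 note: intracellular parasites grown in NIH/3T3 mouse fibroblasts as host cells; luminescent beta-galactosidase reporter signal from transgenic T. cruzi replicating inside host cells; inhibitors lower the luminescence signal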
[14] = target: T5, Type-1 angiotensin II receptor (Homo sapiens, UniProt P30556); assay: antagonism of angiotensin II type 1 receptor – cell-based, uHTS hits, selectivity assay for APJ receptor antagonist project, dose response (AID 463214); format: functional;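 note: antagonist potency against angiotensin II stimulated AT1 response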
T5 sequence (P30556 whole entry): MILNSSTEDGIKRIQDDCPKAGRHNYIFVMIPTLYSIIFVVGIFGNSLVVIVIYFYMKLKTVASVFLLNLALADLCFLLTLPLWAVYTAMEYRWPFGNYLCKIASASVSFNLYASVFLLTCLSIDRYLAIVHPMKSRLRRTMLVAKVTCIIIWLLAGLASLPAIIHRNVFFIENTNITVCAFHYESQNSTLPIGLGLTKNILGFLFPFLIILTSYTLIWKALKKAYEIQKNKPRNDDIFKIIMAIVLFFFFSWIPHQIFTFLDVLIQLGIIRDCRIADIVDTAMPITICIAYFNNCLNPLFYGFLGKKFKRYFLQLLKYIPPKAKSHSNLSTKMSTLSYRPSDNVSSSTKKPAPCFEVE

Protein RecA = target: T6, Protein RecA (Mycobacterium tuberculosis, UniProt P9WHJ3); assay: Fluorescence Cell-Free Homogeneous Dose Retest to Identify Inhibitors of RecA-Intein Splicing Activity. [Related pubchem assays (depositor defined):AID2097, AID2223, AID489010, AID492950]; format: functional
T6 sequence (P9WHJ3 whole entry): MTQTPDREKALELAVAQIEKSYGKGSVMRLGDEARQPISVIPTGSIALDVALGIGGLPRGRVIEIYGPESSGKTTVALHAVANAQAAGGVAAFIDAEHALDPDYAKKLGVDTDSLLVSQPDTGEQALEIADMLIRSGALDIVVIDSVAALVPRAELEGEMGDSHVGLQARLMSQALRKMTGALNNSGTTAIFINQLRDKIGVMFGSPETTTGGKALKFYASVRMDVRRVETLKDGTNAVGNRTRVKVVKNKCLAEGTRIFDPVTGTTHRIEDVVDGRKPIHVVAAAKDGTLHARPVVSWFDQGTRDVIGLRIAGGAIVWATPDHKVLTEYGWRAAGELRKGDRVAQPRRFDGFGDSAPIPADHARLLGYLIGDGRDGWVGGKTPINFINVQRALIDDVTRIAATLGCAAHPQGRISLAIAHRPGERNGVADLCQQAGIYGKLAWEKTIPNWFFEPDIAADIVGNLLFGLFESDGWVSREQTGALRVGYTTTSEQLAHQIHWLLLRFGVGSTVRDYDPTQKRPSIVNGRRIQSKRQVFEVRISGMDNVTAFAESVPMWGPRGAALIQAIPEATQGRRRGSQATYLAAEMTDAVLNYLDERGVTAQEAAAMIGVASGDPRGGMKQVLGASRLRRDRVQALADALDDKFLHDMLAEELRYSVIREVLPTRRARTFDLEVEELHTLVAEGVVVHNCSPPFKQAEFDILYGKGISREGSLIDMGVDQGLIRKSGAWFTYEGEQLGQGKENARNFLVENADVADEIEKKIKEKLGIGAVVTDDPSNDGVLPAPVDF

[15] = target: T7, Replicative DNA helicase DnaB (Mycobacterium tuberculosis, UniProt P9WMR3); assay: DnaB intein splicing inhibitors, dose response, biochemical, cell-free fluorescence (AID 449749); format: functional
T7 sequence (P9WMR3 whole entry): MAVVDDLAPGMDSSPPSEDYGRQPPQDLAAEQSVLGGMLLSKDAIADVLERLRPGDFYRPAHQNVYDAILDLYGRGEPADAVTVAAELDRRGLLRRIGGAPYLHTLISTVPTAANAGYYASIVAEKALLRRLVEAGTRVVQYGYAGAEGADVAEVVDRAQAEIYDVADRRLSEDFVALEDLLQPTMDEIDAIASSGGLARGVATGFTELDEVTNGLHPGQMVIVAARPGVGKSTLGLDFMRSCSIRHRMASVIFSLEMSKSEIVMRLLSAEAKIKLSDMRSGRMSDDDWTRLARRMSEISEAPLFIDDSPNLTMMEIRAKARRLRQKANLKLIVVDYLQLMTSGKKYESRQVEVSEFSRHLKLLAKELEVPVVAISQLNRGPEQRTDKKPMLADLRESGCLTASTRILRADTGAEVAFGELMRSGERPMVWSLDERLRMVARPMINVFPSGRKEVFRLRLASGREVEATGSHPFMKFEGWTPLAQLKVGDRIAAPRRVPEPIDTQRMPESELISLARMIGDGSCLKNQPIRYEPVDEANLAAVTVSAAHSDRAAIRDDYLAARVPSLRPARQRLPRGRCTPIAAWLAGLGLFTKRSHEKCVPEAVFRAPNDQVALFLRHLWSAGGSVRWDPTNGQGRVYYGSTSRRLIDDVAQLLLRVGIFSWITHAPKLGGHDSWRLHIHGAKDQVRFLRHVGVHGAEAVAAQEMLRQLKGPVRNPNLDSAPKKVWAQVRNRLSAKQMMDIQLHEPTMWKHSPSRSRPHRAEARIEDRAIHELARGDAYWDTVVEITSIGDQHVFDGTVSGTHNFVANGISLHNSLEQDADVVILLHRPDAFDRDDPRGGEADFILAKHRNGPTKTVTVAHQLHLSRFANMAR

[16] = general mammalian cell viability loss – activator set, cherry-pick, cytotoxicity control for miR-122 modulator project, dose response (AID 720690); format: functional, cell-based;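 note: HEK293T human cells scored for general mammalian cytotoxicity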
Beta Lactamase = Beta Lactamase (Pseudomonas aeruginosa, UniProt Q932Y6); assay: BLA reporter interference, concentration series – BLA reporter cells, FRET fluorescence, artefact control for NOD2-RIPK2 interaction inhibitor project, dose response (AID 651552); format: functional, cell-based
[17] = NIH3T3 cell viability loss – ATP luminescence, mouse fibroblasts, counter-screen, dose response (AID 2010); format: functional, cell-based;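 note: cells exposed to compound for about 90 hours before reading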
Beta-galactosidase = Beta-galactosidase (Escherichia coli, UniProt Q8VNN2); assay: PubChem AID 485352; format: functional
[18] = blockers of bursicon-stimulated LGR2 cAMP reporter – cell-based, HEK293, CRE-luciferase reporter, cherry pick, set 2, dose response (AID 743343); format: functional;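 note: transfected cells were stimulated with diluted bursicon conditioned medium after compound addition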
[19] = blockade of melanocortin 4 receptor signaling – cell-based, plate reader, cherry pick, counter-screen for LGR2 antagonist project, dose response (AID 743444); format: functional;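 note: transfected HEK 293 cells stimulated with alpha-MSH peptide; potency of inhibitors of the alpha-MSH evoked signal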
[20] = toxicity toward HepG2 liver cells – cell-based, plate reader, cherry-pick, antagonist series, cytotoxicity control, dose response (AID 743416); format: functional
[21] = viability loss in HEK293 cells – cell-based, plate reader, cherry-picked samples, cytotoxicity control, dose response (AID 743446); format: functional

CC(=O)Oc1ccc(N2C(=O)C3C(C2=O)C(C(=O)c2ccc(Cl)cc2)N2CCCC32)cc1 (stereo not given)
EC50 (Troponin, cardiac muscle): 23.5 µM (inactive)
IC50 [1]: 7.5 µM (active)
IC50 [2]: 4.65 µM (active)

CN(C)CCCNc1cc(-c2ccccc2)nc2cc(-c3cccc(F)c3)nn12
AC50 [3]: 15.1 µM (active)
AC50 [4]: 21.1 µM (active)
AC50 [5]: 24.4 µM (active)

Cn1cnc2c(O)ncc([N+](=O)[O-])c21
IC50 [6]: 10.4 µM (active)
IC50 [7]: > 100 µM (inactive)

CNC(=O)c1nnsc1S(=O)(=O)c1ccc(Cl)cc1
AC50 [8]: 4.54 µM (active)
IC50 [9]: 2.13 µM (active)
AC50 [10]: 18.8 µM (active)
IC50 [11]: 10.6 µM (inactive)
AC50 [12]: 8.58 µM (active)
EC50 [13]: 1.24 µM (active)
IC50 [14]: 9.67 µM (active)
EC50 (Protein RecA): 14.3 µM (active)
AC50 [15]: 15.3 µM (active)
AC50 [16]: 2.7 µM (active)
IC50 (Beta Lactamase): 11.3 µM (inactive)
EC50 [17]: 2.47 µM (active)
EC50 (Beta-galactosidase): > 40 µM (inactive)
AC50 [18]: 3.74 µM (active)
AC50 [19]: 3.28 µM (active)
AC50 [20]: 7.37 µM (active)
AC50 [21]: 7.5 µM (active)
